Reference: paper PMC5453931, “Cathelicidin-trypsin inhibitor loop conjugate represents a promising antibiotic candidate with protease stability” (Scientific Reports, 2017)
Converted amounts (≈) assume the structure as drawn. Where a SMILES comes first, the peptide text is derived from it. Bridges are numbered along the chain shown (N, C = ends).

Assays:
[1] = tested on: Aeromonas veronii; assay: microbe, parasite or virus in culture; assay type: cell-based; conditions: 18 h
Description: (§1) A two-fold broth microdilution method described in our previous paper was used to determine the antimicrobial activities of parental and hybrid peptides. More than 30 strains including Gram-negative bacteria, Gram-positive bacteria and fungi were used in the current assay, in which the standard strains were stored in our lab and the clinical strains were collected from local hospitals. Briefly, bacteria were incubated in Mueller-Hinton broth (MH broth) at 37 °C to exponential phase and diluted to 10^6 CFU/mL. A serial dilution of peptide sample were prepared in 96-well microtiter plates (50 μL) and mixed with equal volume of microbial inoculums (50 μL). The plate was slowly shaken in the microbial incubator, and measured at A595 after incubation at 37 °C for 18 h. The minimal concentrations at which no microbial growth occurred were recorded as MIC (minimal inhibitory concentration) values. The traditional antibiotic ampicillin was used as positive control. The results are shown in an average of the MICs obtained from three independent experiments.

[2] = tested on: E. Coli 08032823; assay: microbe, parasite or virus in culture; assay type: cell-based; conditions: 08032823, 18 h
Description: as §1

[3] = tested on: Vibrio harveyi; assay: microbe, parasite or virus in culture; assay type: cell-based; conditions: 18 h
Description: as §1

[4] = tested on: S. Aureus 08032615; assay: microbe, parasite or virus in culture; assay type: cell-based; conditions: Gram-positive; two-fold broth microdilution, MH broth, 37 °C, 18 h; mean of three independent experiments in duplicates
Description: as §1

[5] = tested on: Proteus mirabilis 1376; assay: microbe, parasite or virus in culture; assay type: cell-based; conditions: Gram-negative; two-fold broth microdilution, MH broth, 37 °C, 18 h; mean of three independent experiments in duplicates
Description: as §1

[6] = tested on: Candida glabrata 08A802; assay: microbe, parasite or virus in culture; assay type: cell-based; conditions: 08A802, 18 h
Description: as §1

[7] = tested on: Escherichia coli ATCC25922; assay: microbe, parasite or virus in culture; assay type: cell-based; conditions: ATCC25922, 18 h
Description: as §1

[8] = tested on: Vibrio cholerae; assay: microbe, parasite or virus in culture; assay type: cell-based; conditions: 18 h
Description: as §1

[9] = tested on: K. Pneumoniae 08040202; assay: microbe, parasite or virus in culture; assay type: cell-based; conditions: Gram-negative; two-fold broth microdilution, MH broth, 37 °C, 18 h; mean of three independent experiments in duplicates
Description: as §1

[10] = tested on: Vibrio brasiiensis; assay: microbe, parasite or virus in culture; assay type: cell-based; conditions: 18 h
Description: as §1

[11] = tested on: S. Maltophilia 090223; assay: microbe, parasite or virus in culture; assay type: cell-based; conditions: 090223, 18 h
Description: as §1

[12] = tested on: Bacillus subtilis 08042313; assay: microbe, parasite or virus in culture; assay type: cell-based; conditions: 08042313, 18 h
Description: as §1

[13] = tested on: Edwardsiella tarda; assay: microbe, parasite or virus in culture; assay type: cell-based; conditions: Aquatic pathogenic bacteria; two-fold broth microdilution, 37 °C, 18 h; mean of three independent experiments in duplicates
Description: as §1

[14] = tested on: K. Pneumoniae 08031012; assay: microbe, parasite or virus in culture; assay type: cell-based; conditions: Gram-negative; two-fold broth microdilution, MH broth, 37 °C, 18 h; mean of three independent experiments in duplicates
Description: as §1

[15] = tested on: Nocardia asteroides 08052412; assay: microbe, parasite or virus in culture; assay type: cell-based; conditions: 18 h
Description: as §1

[16] = tested on: Enterococcus faecium 08052315; assay: microbe, parasite or virus in culture; assay type: cell-based; conditions: 08052315, 18 h
Description: as §1

[17] = tested on: P. Aeruginosa 08021015; assay: microbe, parasite or virus in culture; assay type: cell-based; conditions: Gram-negative; two-fold broth microdilution, MH broth, 37 °C, 18 h; mean of three independent experiments in duplicates
Description: as §1

[18] = tested on: Candida albicans 08030102; assay: microbe, parasite or virus in culture; assay type: cell-based; conditions: 08030102, 18 h
Description: as §1

[19] = tested on: S. Aureus 08032810; assay: microbe, parasite or virus in culture; assay type: cell-based; conditions: Gram-positive; two-fold broth microdilution, MH broth, 37 °C, 18 h; mean of three independent experiments in duplicates
Description: as §1

[20] = tested on: S. Aureus 08032706; assay: microbe, parasite or virus in culture; assay type: cell-based; conditions: Gram-positive; two-fold broth microdilution, MH broth, 37 °C, 18 h; mean of three independent experiments in duplicates
Description: as §1

[21] = tested on: Aeromonas sobria; assay: microbe, parasite or virus in culture; assay type: cell-based; conditions: 18 h
Description: as §1

[22] = target: trypsin; assay: Trypsin inhibition assay (NBLAN hydrolysis, Dixon method); assay type: biochemical; conditions: 50 mM Tris–HCl pH 7.8, trypsin 0.1 mg/mL, 5 min pre-incubation at 37 °C, substrate NBLAN 48, 96, 192 μg/mL, 405 nm
Description: The inhibition effect on the hydrolysis of synthetic chromogenic substrate by trypsin was assayed in 50 mM Tris–HCl, pH 7.8 buffer at room temperature. The trypsin of final concentration of 0.1 mg/mL and different amounts of the hybrid peptide (final concentrations ranging from 0 to 0.16 μg/mL) were pre-incubated for 5 min at 37 °C. N-α-Benzoyl-DL-arginine p-nitroanilide hydrochloride (NBLAN) was used as a substrate for trypsin. The reaction was initiated by the addition of NBLAN with a final concentration of 48, 96 and 192 μg/mL, respectively. The formation of yellow product, p-nitroaniline was monitored continuously at 405 nm[61]. The inhibition constant Ki of the hybrid peptides were determined according to the method of Dixon (1953)[62].

[23] = tested on: established C. albicans biofilm; assay: Biofilm disruption assay, established biofilm (XTT, PI/SYBR Green I); assay type: cell-based
Description: TIH3F that has the best antifungal activity among the four peptides was chosen to examine the effect on the C. albicans biofilm formation and the established biofilm using previously described method with minor modifications. In the biofilm inhibition assay, after the incubation at 35 °C, C. Albicans was diluted to 1 × 10^6 CFU/mL in RPMI-1640 medium. Then 2 mL culture was added to each well of 6-well plates with coverslips at the bottom, and incubated at 35 °C in a humid chamber for 3 h. Non-adherent cells were then washed away by PBS, and series concentrations of TIH3F (0, 1, 2, 4 μg/mL) were added into the plate, with amphotericin B as control. The formation of the biofilm was determined by the XTT Cell Proliferation and Cytotoxicity Kit (KeyGEN BioTECH, Nanjing, China) after 36-h incubation. In the biofilm disruption assay, the biofilm was preformed as described above but with a longer incubation time up to 72 h. Then TIH3F and amphotericin B of series concentrations (0, 2.5, 5, 10, 25, 50 μg/mL) was added after non-adherent cells were washed out. The measurement of remaining biofilm was then determined. In order to further confirm the antifungal effect of TIH3F against C. albicans encased in biofilms, the established biofilm was treated with TIH3F (0, 5, 50 μg/mL), washed three times with PBS, and finally stained with 1 mL 1000-fold diluted PI/SYBR Green I at 30 °C in the dark for 20 min. After washing with PBS, the plate was immediately photographed with fluorescence microscope.

[24] = tested on: E. coli 08040726; assay: MIC, two-fold broth microdilution (second listing of the strain number); assay type: cell-based; conditions: Gram-negative, MH broth, 37 °C, 18 h, mean of three independent experiments in duplicates
Description: as §1

[25] = tested on: E. coli 08040726; assay: Bacterial killing kinetic assay, colony counting; assay type: cell-based
Description: The bacterial killing kinetics of the hybrid peptides against E. coli 08040726 was determined by counting the changes in the viable bacterial clones after peptide treatment. The experiment was carried out according to the method described previously with minor modifications. Fresh colonies of the bacteria were incubated in MH broth at 37 °C for 12 h and diluted to 10^6 CFU/in fresh MH broth. The hybrid peptide was added to the bacterial suspension with a final concentration of 1x and 5x corresponding MICs, and incubated at 37 °C for 0, 10, 20, 30, 45, 60, 90, 120, and 180 mins. At each time point, aliquots (50 μL) were removed and diluted with fresh MH broth for 1000 times. […] of the dilutions were coated on MH agar plates, incubated overnight at 37 °C, and the viable colonies were counted. Ampicillin was used as positive control and sterile deionized water was used as negative control.

[26] = tested on: Staphylococcus epidermidis; assay: MIC, two-fold broth microdilution; assay type: cell-based; conditions: Gram-positive; two-fold broth microdilution, MH broth, 37 °C, 18 h; mean of three independent experiments in duplicates
Description: as §1

[27] = tested on: Vibrio Parahaemolyticus; assay: MIC, two-fold broth microdilution; assay type: cell-based; conditions: Aquatic pathogenic bacteria; two-fold broth microdilution, 37 °C, 18 h; mean of three independent experiments in duplicates
Description: as §1

[28] = tested on: E. Coli 08032813; assay: MIC, two-fold broth microdilution; assay type: cell-based; conditions: Gram-negative; two-fold broth microdilution, MH broth, 37 °C, 18 h; mean of three independent experiments in duplicates
Description: as §1

## CC[C@H](C)[C@@H]1NC(=O)[C@H](CO)NC(=O)[C@H](CCCCN)NC(=O)[C@H]([C@@H](C)O)NC(=O)[C@H](Cc2c[nH]c3ccccc23)NC(=O)[C@@H](NC(=O)[C@H](Cc2ccccc2)NC(=O)[C@H](CCCCN)NC(=O)[C@H](CCCCN)NC(=O)[C@H](Cc2ccccc2)NC(=O)[C@H](C)NC(=O)[C@H](CCCNC(=N)N)NC(=O)[C@H](CCCNC(=N)N)NC(=O)[C@H](Cc2ccccc2)NC(=O)[C@H](CO)NC(=O)[C@H](CCCCN)NC(=O)[C@H](Cc2ccccc2)NC(=O)[C@H](Cc2ccccc2)NC(=O)[C@H](CCCNC(=N)N)NC(=O)[C@H](CCCCN)NC(=O)[C@H](Cc2ccccc2)NC(=O)[C@H](Cc2ccccc2)NC(=O)[C@@H](N)CCCCN)CSSC[C@@H](C(=O)O)NC(=O)[C@@H]2CCCN2C(=O)[C@H](CCCCN)NC(=O)[C@@H]2CCCN2C(=O)[C@@H]2CCCN2C1=O [H3TIF] (H-KFFKRFFKSFRRAFKKFCWTKSIPPKPC-OH; disulfide 18-28)
[1]
  MIC Aeromonas veronii: 9.38 µg/mL (≈ 2.64 µM)
[2]
  MIC E. Coli 08032823: 37.5 µg/mL (≈ 10.5 µM)
[3]
  MIC Vibrio harveyi: 18.75 µg/mL (≈ 5.27 µM)
[4]
  MIC S. Aureus 08032615: — (no detectable activity in MIC assay in dose of 200 µg/mL or in trypsin inhibition assay at concentration of 160 μg/mL)
[5]
  MIC Proteus mirabilis 1376: — (no detectable activity in MIC assay in dose of 200 µg/mL or in trypsin inhibition assay at concentration of 160 μg/mL)
[6]
  MIC Candida glabrata 08A802: 9.38 µg/mL (≈ 2.64 µM)
[7]
  MIC Escherichia coli ATCC25922: 37.5 µg/mL (≈ 10.5 µM)
[8]
  MIC Vibrio cholerae: 9.38 µg/mL (≈ 2.64 µM)
[9]
  MIC K. Pneumoniae 08040202: — (no detectable activity in MIC assay in dose of 200 µg/mL or in trypsin inhibition assay at concentration of 160 μg/mL)
[10]
  MIC Vibrio brasiiensis: 4.69 µg/mL (≈ 1.32 µM)
[11]
  MIC S. Maltophilia 090223: 4.69 µg/mL (≈ 1.32 µM)
[12]
  MIC Bacillus subtilis 08042313: 37.5 µg/mL (≈ 10.5 µM)
[13]
  MIC Edwardsiella tarda: — (no detectable activity in MIC assay in dose of 200 µg/mL or in trypsin inhibition assay at concentration of 160 μg/mL)
[14]
  MIC K. Pneumoniae 08031012: — (no detectable activity in MIC assay in dose of 200 µg/mL or in trypsin inhibition assay at concentration of 160 μg/mL)
[15]
  MIC Nocardia asteroides 08052412: 4.69 µg/mL (≈ 1.32 µM)
[16]
  MIC Enterococcus faecium 08052315: 9.38 µg/mL (≈ 2.64 µM)
[17]
  MIC P. Aeruginosa 08021015: — (no detectable activity in MIC assay in dose of 200 µg/mL or in trypsin inhibition assay at concentration of 160 μg/mL)
[18]
  MIC Candida albicans 08030102: 4.69 µg/mL (≈ 1.32 µM)
[19]
  MIC S. Aureus 08032810: — (no detectable activity in MIC assay in dose of 200 µg/mL or in trypsin inhibition assay at concentration of 160 μg/mL)
[20]
  MIC S. Aureus 08032706: — (no detectable activity in MIC assay in dose of 200 µg/mL or in trypsin inhibition assay at concentration of 160 μg/mL)
[21]
  MIC Aeromonas sobria: 18.75 µg/mL (≈ 5.27 µM)
[22]
  Ki: 6.5 µM
[23]; 5 μg/mL, biofilm preformed 72 h, XTT metabolic activity, Fig. 2B
  damage of established C. albicans biofilm: evident antifungal activity
[23]; 50 μg/mL, PI/SYBR Green I staining, fluorescence microscopy, Fig. 2C
  killing of C. albicans in preformed biofilm: destroy all of the cell membranes
[24]
  MIC E. Coli 08040726 (second line with this strain number): — (no detectable activity in MIC assay in dose of 200 µg/mL or in trypsin inhibition assay at concentration of 160 μg/mL)
[25]; 1xMIC
  time of killing toward E. coli: ≤ 2 h
[25]; 5xMIC
  time of killing toward E. coli: ≤ 0.5 h
[26]
  MIC Staphylococcus epidermidis: — (no detectable activity in MIC assay in dose of 200 µg/mL or in trypsin inhibition assay at concentration of 160 μg/mL)
[27]
  MIC Vibrio Parahaemolyticus: 2.37 µg/mL (≈ 0.667 µM)
[28]
  MIC E. Coli 08032813: — (no detectable activity in MIC assay in dose of 200 µg/mL or in trypsin inhibition assay at concentration of 160 μg/mL)
